Measurements reported in US6656911B2, “Serine protease inhibitors” (Cortech, Inc., priority 1994, dated 2003).

molecular target: T1, human neutrophil elastase (HNE) (Homo sapiens, UniProt P08246); assay: HNE Ki of CE compounds, tested as described in WO 96/16080; assay type: biochemical; conditions: read-out: HNE Ki
T1 sequence (P08246 30-267): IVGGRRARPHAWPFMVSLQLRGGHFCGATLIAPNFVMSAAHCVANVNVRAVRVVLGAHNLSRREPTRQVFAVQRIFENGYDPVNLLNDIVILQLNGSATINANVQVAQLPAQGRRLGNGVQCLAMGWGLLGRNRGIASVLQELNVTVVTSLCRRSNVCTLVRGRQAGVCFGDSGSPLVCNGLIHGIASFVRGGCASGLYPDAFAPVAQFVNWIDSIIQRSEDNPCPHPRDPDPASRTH

Ki | Molecule
0.64 nM | CC(C)[C@H](NC(=O)[C@@H]1CCCN1C(=O)[C@@H](NC(=O)c1cccnc1)C(C)C)C(=O)c1noc(Cc2cccc(C(F)(F)F)c2)n1 [CE2171, (3-Pyridylcarbonyl)-L-valyl-N-[1-(3-[5-(3-trifluoromethylbenzyl)-1,2,4-oxadiazolyl]carbonyl)-2-(S)-methylpropyl]-L-prolinamide]
104 nM | Cc1cccc(Cc2nnc(C(=O)C(NC(=O)CN3C(=O)C[S+]([O-])C3Cc3ccccc3)C(C)C)o2)c1 [CE2136, 2-[(2-(R,S)-Benzyl-4-oxothiazolidin-3-yloxide]-N-[1-(2-[5-(3-methylbenzyl)-1,3,4-oxadiazolyl]carbonyl)-2-(R,S)-methylpropyl]acetamide]
0.41 nM | COc1cc(Cc2nc(C(=O)[C@@H](NC(=O)[C@@H]3CCCN3C(=O)[C@@H](NC(=O)OCc3ccccc3)C(C)C)C(C)C)no2)cc(OC)c1 [CE2053, (Benzyloxycarbonyl)-L-valyl-N-[1-(3-[5-(3,5-dimethoxybenzyl)-1,2,4-oxadiazolyl]carbonyl)-2-(S)-methylpropyl]-L-prolinamide]
270 nM | 3-(S)-[(4-Morpholino carbonyl-butanoyl)amino]-ε-lactam-N-[1-(2-[5-(3-methylbenzyl)-1,3,4-oxadiazolyl]carbonyl)-2-(R,S)-methylpropyl]acetamide [CE2091]
537 nM | CC(C)[C@H](NC(=O)CN1Cc2ccccc2NC1=O)C(=O)c1noc(Cc2cccc(C(F)(F)F)c2)n1 [CE2219, 1,4-Quinazolin-2-one-N-[1-(3-[5-(3-trifluoromethylbenzyl)-1,2,4-oxadiazolyl]carbonyl)-2-(S)-methylpropyl]acetamide]
42 nM | CC(C)[C@H](NC(=O)CN1C(=O)CN(Cc2ccc3c(c2)OCCO3)C(=O)[C@@H]1Cc1ccccc1)C(=O)c1noc(Cc2cccc(C(F)(F)F)c2)n1 [CE2187]
0.037 nM | Cc1cccc(Cc2nnc(C(=O)[C@@H](NC(=O)[C@@H]3CCCN3C(=O)[C@@H](NC(=O)OCc3ccncc3)C(C)C)C(C)C)o2)c1 [CE2186, 4-Pyridylmethyleneoxycarbonyl -L-valyl-N-[1-(2-[5-(3-methylbenzyl)-1,3,4-oxadiazolyl]carbonyl)-2-(S)-methylpropyl]-L-prolinamide]
8.7 nM | Cc1cccc(Cc2nnc(C(=O)[C@@H](NC(=O)CN3C(=O)N[C@H](Cc4ccccc4)C3=O)C(C)C)o2)c1 [CE2142, 5-(R)-Benzyl-2,4-imidazolidinedione-N-[1-(2-[5-(3-methylbenzyl)-1,3,4-oxadiazolyl]carbonyl)-2-(S)-methylpropyl]acetamide]
133 nM | CC(C)C(NC(=O)CN1C(=O)CN(C)C(=O)C1c1ccccc1)C(=O)c1noc(Cc2cccc(C(F)(F)F)c2)n1 [CE2084, 4-[1-Methyl-3-(R,S)-phenylpiperazine-2,5,-dione]-N-[1-(3-[5-(3-trifluoromethylbenzyl)-1,2,4-oxadiazolyl]carbonyl)-2-(S)-methylpropyl]acetamide]
3.1 nM | CC(C)[C@H](NC(=O)CN1C(=O)NC(c2ccccc2)C1=O)C(=O)c1noc(Cc2cccc(C(F)(F)F)c2)n1 (stereo partly drawn) [CE2198, 4-(R,S)-Phenyl-2,5-imidazolidinedione-N-[1-(3-[5-(3-trifluoromethylbenzyl)-1,2,4-oxadiazolyl]carbonyl)-2-(S)-methylpropyl]acetamide]
4.8 nM | Cc1cccc(Cc2nnc(C(=O)[C@@H](NC(=O)CN3C(=O)CN(Cc4ccc5c(c4)OCCO5)C(=O)[C@H]3Cc3ccccc3)C(C)C)o2)c1 [CE2197, 4-[1-(3,4-Ethylenedioxybenzyl)-3-(R)-benzylpiperazine-2,5-dione]-N-[1-(2-[5-(3-methylbenzyl)-1,3,4-oxadiazolyl]carbonyl)-2-(S)-methylpropyl]acetamide]
1 nM | Cc1nnc(C(=O)[C@@H](NC(=O)[C@@H]2CCCN2C(=O)[C@@H](NC(=O)OCc2ccccc2)C(C)C)C(C)C)o1 [CE2074]
